{
  "source": "patent US20250152626A1",
  "about": "“CONSTRUCTION AND APPLICATION OF ENHANCED NEUTROPHIL DRUG” (China Pharmaceutical University, priority 2023, published 2025)",
  "tested_on": "Human neutrophils",
  "experiment": "Effect of single inducers on neutrophil viability (Example 1)",
  "type": "cell-based",
  "conditions": "FIG. 2; for effect on neutrophil lifespan / viability: single inducer 8 h in 1640 medium, inducer removed, culture 24 h, apoptosis by flow cytometry; for concentration with the best effect on neutrophil lifespan: cytokine inducers tested at 0-100 ng/mL",
  "procedure": "Human neutrophils were incubated with different concentrations of single inducers in 1640 medium for 8 h. Different concentrations of single inducers included: • inducer 1 (IFNγ): 0, 10, 20, 30, 50, 100 ng/mL; • inducer 2 (GM-CSF): 0, 10, 20, 30, 50, 100 ng/mL; • inducer 3 (TNFα): 0, 10, 20, 30, 50, 100 ng/mL; • inducer 4 (duvalumab): 0.1, 0.5, 1, 2, 3, 5, 8, 10 μg/mL; • inducer 5 (avelumab): 0.1, 0.5, 1, 2, 3, 5, 8, 10 μg/mL; • inducer 6 (Q-VD-Oph): 1, 10, 20, 50, 60, 80, 100 μM; and • inducer 7 (Nec-1): 1, 10, 20, 50, 60, 80, 100 μM; and • conditions of culture were 37° C. and 5% CO2. The apoptosis of neutrophils was detected by flow cytometry after removing the inducer and continuing culture for 24 h.",
  "key": {"[1]": {"conditions": "apoptosis inhibitors tested at 1-100 μM"}, "[2]": {"conditions": "PD-L1 inhibitors tested at 0.1-10 μg/mL"}},
  "data": [
    {"molecule": "CC(C)[C@H](NC(=O)c1ccc2ccccc2n1)C(=O)N[C@@H](CC(=O)O)C(=O)COc1c(F)cccc1F", "note": "[inducer 6, Q-VD-Oph]", "values": [
      {"measurement": "concentration with the best effect on neutrophil viability", "setting": "[1]", "result": 50, "unit": "µM"},
      {"measurement": "effect on neutrophil lifespan / viability", "result": "increase neutrophil viability"}
    ]},
    {"molecule": "duvalumab [inducer 4]", "values": [
      {"measurement": "concentration with the best effect on neutrophil viability", "setting": "[2]", "result": 2, "unit": "µg/mL"},
      {"measurement": "effect on neutrophil lifespan / viability", "result": "increase neutrophil viability"}
    ]},
    {"molecule": "CN1C(=O)C(Cc2c[nH]c3ccccc23)NC1=S", "note": "(stereo not drawn) [inducer 7, Nec-1]", "values": [
      {"measurement": "concentration with the best effect on neutrophil viability", "setting": "[1]", "result": 50, "unit": "µM"},
      {"measurement": "effect on neutrophil lifespan / viability", "result": "increase neutrophil viability"}
    ]},
    {"molecule": "avelumab [inducer 5]", "values": [
      {"measurement": "concentration with the best effect on neutrophil viability", "setting": "[2]", "result": 2, "unit": "µg/mL"},
      {"measurement": "effect on neutrophil lifespan / viability", "result": "increase neutrophil viability"}
    ]},
    {"molecule": "GM-CSF [inducer 2]", "values": [
      {"measurement": "concentration with the best effect on neutrophil lifespan", "result": 20, "unit": "ng/mL"},
      {"measurement": "effect on neutrophil lifespan / viability", "result": "significantly prolong the lifespan of neutrophils"}
    ]},
    {"molecule": "IFNγ (protein, UniProt P01579 24-161, looked up, cytokine, single inducer) Interferon gamma: QDPYVKEAENLKKYFNAGHSDVADNGTLFLGILKNWKEESDRKIMQSQIVSFYFKLFKNFKDDQSIQKSVETIKEDMNVKFFNSNKKKRDDFEKLTNYSVTDLNVQRKAIHELIQVMAELSPAAKTGKRKRSQMLFRG", "values": [
      {"measurement": "concentration with the best effect on neutrophil lifespan", "result": 20, "unit": "ng/mL"},
      {"measurement": "effect on neutrophil lifespan / viability", "result": "significantly prolong the lifespan of neutrophils"}
    ]}
  ]
}
